The record followed here is ChEMBL document CHEMBL1201862, “PubChem BioAssay data set” (2004).

Active and inactive are the calls of the source.

One assay addresses Kallikrein-7 (Homo sapiens, UniProt P49862). As to the kind of experiment: Fluorescence Intensity-based biochemical primary high throughput dose response assay to identify activators of kallikrein-7 (K7) zymogen.
For a further assay, the target named is Large T antigen (Simian virus 40, UniProt P03070). Type of assay: functional, Betapolyomavirus macacae.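 Also: Confirmatory-stage PubChem screen for compounds that inhibit SV40 T antigen.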
The nature of assay [1]: HGIII-sPLA2 enzyme inhibition potency – biochemical, QFRET, IC50, dose response (AID 743457).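 Also: green fluorescence rise as the enzyme cleaves BODIPY PC-A2 in liposomes.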
For a further assay, the target named is fMet-Leu-Phe receptor (Homo sapiens, UniProt P21462). As to the kind of experiment: formyl peptide receptor binders – dose response (AID 519). The assay is classed as functional.
Assay [2] can be described thus: reduction of Shn3 3'UTR-driven luciferase in osteoblasts – cell-based, Clone20 osteoblasts, firefly luciferase, cherry-picked, dose response (AID 624132).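 Also: firefly luciferase luminescence from reporter carrying the Shn3 3'UTR in osteoblasts.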 The assay is classed as functional.
Assay [3] can be described thus: loss of viability in HepG2 cells – cell-based, CellTiter-Glo, cherry-picked, cytotoxicity control for Shn3 inhibitor project, dose response (AID 624134). Type of assay: functional.
Assay [4] in a line: non-specific 3'UTR reporter inhibition in Clone20-Shn3RL – cell-based, Renilla luciferase, cherry-picked, counter-screen for Shn3 inhibitor project, dose response (AID 624133). Type of assay: functional.
The nature of assay [5]: blockers of HIV-1 envelope-mediated cell-cell fusion – cherry-pick, dose response (AID 652057). The assay is classed as functional, cell-based.
The nature of assay [6]: blockers of HIV-1 ZM109 envelope-driven cell-cell fusion – HeLa effector, CEM target cells, luciferase, cherry-pick, dose response (AID 652058).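 Also: luciferase signal from HIV-1 Env mediated cell-cell fusion of effector and target cells.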 The assay is classed as functional, cell-based.
A short description of assay [7]: off-target signal loss in HeLa-CEM21 co-culture – HeLa F-luc CTL cells, cherry-picked, counter-screen for HIV-1 Env fusion inhibitor project, dose response (AID 652040).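 Also: potency for signal decrease marking cytotoxic or nonspecific inhibition.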 The assay is classed as functional, cell-based.
Assay [8] can be described thus: HIV-1 AD8 envelope cell-cell fusion blockers – cherry-pick, dose response (AID 652062).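 Also: luciferase signal from cell-cell fusion driven by HIV-1 clade B AD8 Env; potency is for inhibitors of fusion seen as a drop in luminescence.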 Type of assay: functional, cell-based.
Assay [9] is described as follows: Shn3 3'UTR reporter signal decrease – cell-based, Clone20 osteoblasts, firefly luciferase, cherry-pick, set 2, Schnurri-3 inhibitor project, dose response (AID 720490).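 Also: actives lower the luminescence signal as inhibitors.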 Type of assay: functional.
The target in another assay is Paired box protein Pax-8 (Homo sapiens, UniProt Q06710). The assay is described as follows: PAX8 transcriptional activity inhibition in RMG-I – RMG-I cells, luciferase, cherry-pick, dose response (AID 687027).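 Also: luciferase reporter driven by Pax8 target thyroperoxidase promoter measured by SteadyGlo luminescence.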 The assay is classed as functional, cell-based.
Assay [10] can be described thus: OVCAR-3 cell viability loss – plate reader, dry powder samples, PAX8 inhibitor project, dose response (AID 743044). The assay is classed as functional, cell-based.
Assay [11] in a line: IGROV1 cell killing – plate reader, dry powder samples, PAX8 inhibitor project, dose response (AID 743043). The assay is classed as functional, cell-based. Particulars: IGROV-1.
A short description of assay [12]: OVCAR8 cell viability loss – plate reader, dry powder samples, PAX8 project, dose response (AID 743197). The assay is classed as functional, cell-based. Particulars: OVCAR-8.
Assay [13] can be described thus: rise of 2N DNA cells, HeLa – IC50, dose response (AID 1117349). Type of assay: functional, cell-based.
Assay [14] is described as follows: CellTiter-Glo luminescence survival assay, SW480 colon tumor line, concentration-response curve, half-maximal inhibitory concentration (AID 1117338). Type of assay: functional.
The nature of assay [15]: RKO cell viability reduction, dose response, CellTiter-Glo luminescence (AID 1117322). The assay is classed as functional.
The nature of assay [16]: cytotoxicity toward HCT116 cells – cell-based, CellTiter-Glo luminescence, IC50, dose response (AID 1117332). Type of assay: functional. Conditions: HCT-116.
Assay [17] can be described thus: SNU-C1 cell viability reduction, dose response, CellTiter-Glo luminescence (AID 1117323). The assay is classed as functional, cell-based.
The nature of assay [18]: cytotoxicity toward Colo320 cells – cell-based, CellTiter-Glo luminescence, IC50, dose response (AID 1117334). Conditions: COLO 320. The assay is classed as functional.
Assay [19] in a line: rise of 4N DNA cells, HeLa – IC50, dose response (AID 1117351). Type of assay: functional, cell-based.
Assay [20] can be described thus: cytotoxicity toward HT-29 cells – cell-based, CellTiter-Glo luminescence, IC50, dose response (AID 1117330). The assay is classed as functional.
The nature of assay [21]: Reduced DLD-1 viability, concentration-response, CellTiter-Glo luminescence (AID 1117352). The assay is classed as functional.
A short description of assay [22]: HCT116 cell viability decrease, GSK3B pretreatment – CellTiter-Glo, IC50, dose response (AID 1117339). Conditions: HCT-116. The assay is classed as functional.
Assay [23] is described as follows: Late stage assay provider results from the probe development effort to identify selective inhibitors of heat shock protein 90 (HSP90): Absorbance-based cell proliferation assay in SKBR3 cells. Type of assay: functional. Particulars: SK-BR-3.
Assay [24] in a line: Late stage assay provider results from the probe development effort to identify selective inhibitors of heat shock protein 90 (HSP90): Absorbance-based cell proliferation assay in MCF7 cells. Type of assay: functional.

Chain of Large T antigen (P03070 whole entry): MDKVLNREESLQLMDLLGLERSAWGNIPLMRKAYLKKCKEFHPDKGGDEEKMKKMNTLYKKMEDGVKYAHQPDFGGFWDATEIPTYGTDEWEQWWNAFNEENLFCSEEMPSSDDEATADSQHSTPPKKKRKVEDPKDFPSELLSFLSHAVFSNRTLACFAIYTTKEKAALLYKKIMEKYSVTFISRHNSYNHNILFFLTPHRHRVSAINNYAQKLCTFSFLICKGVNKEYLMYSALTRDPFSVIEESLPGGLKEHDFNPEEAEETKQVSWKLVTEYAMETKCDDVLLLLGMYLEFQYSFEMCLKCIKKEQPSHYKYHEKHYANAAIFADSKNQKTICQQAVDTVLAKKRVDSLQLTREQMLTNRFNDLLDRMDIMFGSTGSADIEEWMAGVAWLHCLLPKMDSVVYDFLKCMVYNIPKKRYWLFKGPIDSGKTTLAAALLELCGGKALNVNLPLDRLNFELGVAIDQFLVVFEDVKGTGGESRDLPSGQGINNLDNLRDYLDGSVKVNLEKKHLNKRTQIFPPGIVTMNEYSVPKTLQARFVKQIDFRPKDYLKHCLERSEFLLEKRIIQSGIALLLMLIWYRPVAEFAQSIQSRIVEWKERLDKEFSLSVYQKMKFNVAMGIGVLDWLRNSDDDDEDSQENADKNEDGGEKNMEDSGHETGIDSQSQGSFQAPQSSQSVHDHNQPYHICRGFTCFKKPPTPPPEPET
Chain of fMet-Leu-Phe receptor (P21462 whole entry): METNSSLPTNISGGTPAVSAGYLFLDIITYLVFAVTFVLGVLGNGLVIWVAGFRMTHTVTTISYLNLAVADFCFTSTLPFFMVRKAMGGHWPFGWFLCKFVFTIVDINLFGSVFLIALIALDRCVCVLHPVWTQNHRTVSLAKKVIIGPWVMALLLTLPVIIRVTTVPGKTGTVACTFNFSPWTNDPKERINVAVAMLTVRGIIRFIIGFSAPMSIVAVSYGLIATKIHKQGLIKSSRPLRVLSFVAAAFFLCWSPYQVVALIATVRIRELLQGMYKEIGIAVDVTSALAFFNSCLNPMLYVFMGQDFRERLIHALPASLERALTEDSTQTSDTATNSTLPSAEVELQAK
Chain of Kallikrein-7 (P49862 whole entry): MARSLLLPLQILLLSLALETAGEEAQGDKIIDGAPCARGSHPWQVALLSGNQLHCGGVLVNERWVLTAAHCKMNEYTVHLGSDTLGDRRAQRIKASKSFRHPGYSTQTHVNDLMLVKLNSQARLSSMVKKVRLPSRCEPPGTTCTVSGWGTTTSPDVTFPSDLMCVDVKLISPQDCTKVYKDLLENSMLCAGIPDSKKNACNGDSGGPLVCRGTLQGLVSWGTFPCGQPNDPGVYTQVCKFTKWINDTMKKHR
Chain of Paired box protein Pax-8 (Q06710 whole entry): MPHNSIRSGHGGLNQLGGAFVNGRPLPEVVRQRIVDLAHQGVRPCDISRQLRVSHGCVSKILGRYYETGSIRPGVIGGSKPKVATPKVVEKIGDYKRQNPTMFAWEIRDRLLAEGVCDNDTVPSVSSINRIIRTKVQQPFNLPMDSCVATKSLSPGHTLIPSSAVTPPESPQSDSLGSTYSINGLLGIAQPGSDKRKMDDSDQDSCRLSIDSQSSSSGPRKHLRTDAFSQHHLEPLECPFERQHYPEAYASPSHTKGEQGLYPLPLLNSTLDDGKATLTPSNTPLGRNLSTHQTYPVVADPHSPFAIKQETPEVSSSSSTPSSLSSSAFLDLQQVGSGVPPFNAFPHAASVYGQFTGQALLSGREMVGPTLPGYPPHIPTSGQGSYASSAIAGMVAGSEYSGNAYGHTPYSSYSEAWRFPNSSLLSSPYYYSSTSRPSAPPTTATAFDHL

Turning to `CCN1CCN(c2cc(C)c3cc(NC(=O)c4ccc(C)c(C)c4)ccc3n2)CC1`, the EC50 at Kallikrein-7 is 17.2 µM (inactive).
`CNc1nn(-c2cccc(Cl)c2)nc1N`: the IC50 at Large T antigen was 29.9 µM (active); in assay [1], > 122 µM (inactive). At fMet-Leu-Phe receptor, the Ki is > 66.7 µM (inactive).
As for `CCOc1ccc(N(C)S(=O)(=O)c2cc(-c3cc(C)no3)ccc2C(C)C)cc1`, the AC50 in [2] is 4.13 µM (active); in [3], 58.4 µM (active); in [4], 16.7 µM (active); in [5] it was 1.32 µM (active); in [6], 3 µM (active); in assay [7] it was 1.27 µM (active). For the same molecule, the values for the AC50 in [8] and in assay [9] were 7.87 µM (active) and 5.22 µM (active), respectively.
Regarding `COc1ccccc1S(=O)(=O)N(C)C[C@H]1Oc2cc(C#CCC3CCCC3)ccc2S(=O)(=O)N([C@H](C)CO)C[C@H]1C`, the AC50 is 4.83 µM (active) at Paired box protein Pax-8, 35.5 µM (active) in assay [10], 55.4 µM (active) in assay [11] and 64 µM (active) in [12].
`Cc1ccc2nc(N)[nH]c(=O)c2c1Sc1ccncc1`: the IC50 in assay [13] is > 10 µM (inactive); in assay [14], 2.24 µM (active); in [15], 0.343 µM (active); in assay [16] it was 3.5 µM (active); in assay [17], > 20 µM (inactive); in assay [18], > 20 µM (inactive). Also, the IC50 in assay [19] is > 10 µM (inactive); in [20], 4.75 µM (active); in [21], > 20 µM (inactive); in assay [22], 0.83 µM (active).
As for `N#Cc1cc2ccc(OCc3cccc(C(=O)O)c3)cc2oc1=O`, the IC50 in assay [23] and in assay [24] was > 100 µM (inactive) in each case.
With `COC(=O)c1cccc(COc2ccc3cc(C#N)c(=O)oc3c2)c1`, the IC50 in assay [23] and in assay [24] was > 100 µM (inactive) each time.
